Assays:
Conditions in all cases: incubation time: 72 h
[1] = test system: DU-4475; assay: normalised response (% of control), CellTiter-Glo; higher = more viable cells (100 = DMSO, 0 = benzethonium chloride kill control)
Method: (§1)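 DSRT, 72 h incubation, CellTox Green / CellTiter-Glo readout. Signal is normalised to DMSO and benzethonium chloride controls. Value is the normalised response at the highest dose.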

[2] = test system: MFM-223; assay: as above
Method: as §1

[3] = test system: CAL-120; assay: as above
Method: as §1

[4] = test system: MDA-MB-231; assay: as above
Method: as §1

[5] = test system: BT-474; assay: as above
Method: as §1

[6] = test system: SK-BR-3; assay: as above
Method: as §1

[7] = test system: HCC1937; assay: as above
Method: as §1

[8] = test system: HCC1599; assay: as above
Method: as §1

[9] = test system: HDQ-P1; assay: as above
Method: as §1

[10] = test system: MCF-10A; assay: as above
Method: as §1

[11] = test system: MDA-MB-453; assay: as above
Method: as §1

[12] = test system: BT-549; assay: as above
Method: as §1

[13] = test system: Hs578T; assay: as above
Method: as §1

[14] = test system: CAL-85-1; assay: as above
Method: as §1

[15] = test system: CAL-51; assay: as above
Method: as §1

[16] = test system: MDA-MB-468; assay: as above
Method: as §1

[17] = test system: DU-4475; assay: normalised viability (% of control), CellTiter-Blue; higher = more viable cells (about 100 = DMSO control)
Method: (§2)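 DSRT, CellTiter-Blue viability, 72 h incubation. Signal is normalised to DMSO and benzethonium chloride controls. Value is the normalised response at dose 9.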

[18] = test system: HDQ-P1; assay: as above
Method: as §2

[19] = test system: MDA-MB-453; assay: as above
Method: as §2

[20] = test system: CAL-148; assay: as above
Method: as §2

[21] = test system: CAL-85-1; assay: as above
Method: as §2

[22] = test system: CAL-51; assay: as above
Method: as §2

Compound | normalised response [1] [%] | normalised response [2] [%] | normalised response [3] [%] | normalised response [4] [%] | normalised response [5] [%] | normalised response [6] [%] | normalised response [7] [%] | normalised response [8] [%] | normalised response [9] [%] | normalised response [10] [%] | normalised response [11] [%] | normalised response [12] [%] | normalised response [13] [%] | normalised response [14] [%] | normalised response [15] [%] | normalised response [16] [%] | normalised viability [17] [%] | normalised viability [18] [%] | normalised viability [19] [%] | normalised viability [20] [%] | normalised viability [21] [%] | normalised viability [22] [%]
Cc1ccc(-n2nc(C(C)(C)C)cc2NC(=O)Nc2ccc(OCCN3CCOCC3)c3ccccc23)cc1 [Doramapimod] (10000 nM) | 92.7 | 70.2 | 94.8 | 87.5 | 80.3 | 69.5 | 77.7 | 68.7 | 82.3 | 94.2 | 82.9 | 104 | 97.8 | 96.1 | 105 | 72.5 | 102 | 81 | 62.7 | 111 | 72.6 | 86.8
C#Cc1cccc(Nc2ncnc3cc(OCCOC)c(OCCOC)cc23)c1 [Erlotinib] (10000 nM) | 101 | 78.1 | 79.8 | 83.4 | 75.9 | 48 | 76.4 | 92.7 | 66.1 | 30.9 | 90 | 75.4 | 85.8 | 40.2 | 77 | 59.1 | 84.5 | 68 | 55.1 | 24.7 | 47.7 | 50.9
C[C@]12CC[C@@H]3c4ccc(O)cc4C[C@@H](CCCCCCCCC[S+]([O-])CCCC(F)(F)C(F)(F)F)[C@H]3[C@@H]1CC[C@@H]2O (some centres not stated) [Fulvestrant] (1000 nM) | 110 | 99.3 | 105 | 98.9 | 99 | 104 | 94 | 103 | 101 | 101 | 95.6 | 99.3 | 103 | 95.4 | 124 | 96 |  |  |  |  |  | 
O=P1(NCCCl)OCCCN1CCCl (configuration not stated) [Ifosfamide] (10000 nM) | 87.1 | 90 | 96.3 | 90.5 | 90.3 | 93.1 | 96.5 | 110 | 94 | 91.6 | 94.5 | 99.3 | 98.7 | 96.3 | 101 | 93.7 | 85.1 | 125 | 106 | 101 | 88.4 | 107
CC1(C)NC(=O)N(c2ccc([N+](=O)[O-])c(C(F)(F)F)c2)C1=O [Nilutamide] (10000 nM) | 97.4 | 104 | 103 | 105 | 103 | 108 | 94.3 | 106 | 95.1 | 104 | 102 | 93.9 | 104 | 99.7 | 76.1 | 111 | 97.4 | 136 | 106 | 99.8 | 90.7 | 89.4
Cc1ccc(C(=O)Nc2ccc(CN3CCN(C)CC3)c(C(F)(F)F)c2)cc1C#Cc1cnc2cccnn12 [Ponatinib] (1000 nM) | 77.4 | 43.7 | 41.2 | 15.5 | 30.6 | 68.3 | 60.6 | 108 | 36.5 | 34.4 | 77.3 | 36 | 53.9 | 58 | 47 | 69.2 | 50.2 | 21.9 | 38.4 | 77.5 | 50.1 | 42
Cn1c(Nc2ccc(C(F)(F)F)cc2)nc2cc(Oc3ccnc(-c4ncc(C(F)(F)F)[nH]4)c3)ccc21 [RAF265] (1000 nM) | 71.8 | 48 | 67.2 | 83.5 | 79.6 | 92.1 | 63.7 | 73.7 | 47.2 | 86.6 | 95.8 | 68.7 | 78.2 | 40.7 | 52.1 | 50.8 | 42.3 | 34 | 89.2 | 64.1 | 47.2 | 48
CNCc1ccc(-c2[nH]c3cc(F)cc4c3c2CCNC4=O)cc1 [Rucaparib] (10000 nM) | 74 | 91 | 97.8 | 75.7 | 80.9 | 67.7 | 79.7 | 82.2 | 85.3 | 82.8 | 117 | 81.8 | 93 | 93.7 | 93.3 | 68.9 | 46.2 | 106 | 32.1 | 37.5 | 45.8 | 40.5
N[C@@H](CSC(c1ccccc1)(c1ccccc1)c1ccccc1)C(=O)O [S-trityl-L-cysteine] (40000 nM) | 92.3 | 92 | 101 | 91.1 | 89.6 | 99 | 93.5 | 103 | 102 | 104 | 86.2 | 106 | 89.6 | 101 | 123 | 104 | 92.2 | 65 | 83.2 | 114 | 87.5 | 87
